Assay results from patent US20220175776A1, “COMBINATION OF CHIR99021 AND VALPROIC ACID FOR TREATING HEARING LOSS” (Frequency Therapeutics, Inc., priority 2019, published 2022).

How the values were obtained:
[1] = biological target: HER 2 (Homo sapiens, UniProt P04626); details: Table 13; cited from earlier work
[2] = biological target: HER 4 (Homo sapiens, UniProt Q15303); details: Table 13; cited from earlier work
[3] = test system: Lgr5+ cochlear cells; assay: Lgr5+ Assay (in vitro Lgr5+ cell proliferation assay); format: cell-based
[4] = biological target: T1, MAO A (Homo sapiens, UniProt P21397); details: Table 6; marked A or first value of cell; read-out: Select MAOs A and B: MAO A; cited from earlier work
T1 sequence (P21397 1-527): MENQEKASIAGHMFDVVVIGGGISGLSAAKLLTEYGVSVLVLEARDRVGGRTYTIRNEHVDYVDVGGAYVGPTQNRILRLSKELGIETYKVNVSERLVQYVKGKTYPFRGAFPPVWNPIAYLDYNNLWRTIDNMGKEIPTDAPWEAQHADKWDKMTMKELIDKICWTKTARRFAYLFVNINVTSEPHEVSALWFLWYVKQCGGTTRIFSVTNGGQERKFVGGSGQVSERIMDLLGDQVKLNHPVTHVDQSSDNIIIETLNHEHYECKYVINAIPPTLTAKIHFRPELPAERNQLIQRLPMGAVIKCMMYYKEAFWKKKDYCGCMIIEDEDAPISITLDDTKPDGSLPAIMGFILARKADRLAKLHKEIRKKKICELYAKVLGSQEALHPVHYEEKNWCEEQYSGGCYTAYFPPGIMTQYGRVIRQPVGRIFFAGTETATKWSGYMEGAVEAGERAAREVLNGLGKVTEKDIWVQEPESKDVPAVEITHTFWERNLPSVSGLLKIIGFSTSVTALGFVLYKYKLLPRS

[5] = biological target: T2, KDM1b (Homo sapiens, UniProt Q8NB78); details: Table 6; read-out: Select KDM 1b; cited from earlier work
T2 sequence (Q8NB78 1-822): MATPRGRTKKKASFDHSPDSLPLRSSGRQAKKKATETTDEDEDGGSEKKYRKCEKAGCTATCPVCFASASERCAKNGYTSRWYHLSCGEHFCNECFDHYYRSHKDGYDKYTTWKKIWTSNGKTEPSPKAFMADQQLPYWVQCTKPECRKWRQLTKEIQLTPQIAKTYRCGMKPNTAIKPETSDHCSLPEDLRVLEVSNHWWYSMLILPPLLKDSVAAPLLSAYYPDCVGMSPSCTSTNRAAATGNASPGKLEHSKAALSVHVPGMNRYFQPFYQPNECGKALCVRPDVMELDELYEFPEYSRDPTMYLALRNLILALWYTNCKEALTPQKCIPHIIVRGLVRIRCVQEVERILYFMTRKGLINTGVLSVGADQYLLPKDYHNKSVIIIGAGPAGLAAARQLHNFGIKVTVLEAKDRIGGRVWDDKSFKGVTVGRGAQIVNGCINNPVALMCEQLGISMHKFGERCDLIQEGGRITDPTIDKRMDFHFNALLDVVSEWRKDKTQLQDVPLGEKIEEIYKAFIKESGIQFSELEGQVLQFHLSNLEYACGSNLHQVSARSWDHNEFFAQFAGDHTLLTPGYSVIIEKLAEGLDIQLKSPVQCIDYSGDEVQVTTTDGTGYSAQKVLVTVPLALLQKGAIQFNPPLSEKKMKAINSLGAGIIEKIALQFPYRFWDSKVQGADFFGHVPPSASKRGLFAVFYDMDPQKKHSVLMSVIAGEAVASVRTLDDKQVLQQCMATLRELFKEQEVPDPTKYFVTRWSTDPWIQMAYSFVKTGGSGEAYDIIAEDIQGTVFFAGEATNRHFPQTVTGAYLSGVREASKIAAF

[6] = biological target: LSD1 (Homo sapiens, UniProt O60341); details: Table 6; cited from earlier work
[7] = Perilymph sampling after intratympanic injection, mass spectrometry; format: in vivo; details: mice, perilymph of 7 animals, within 0.5 hours after intratympanic injection of 10 µL with 87.6 mg/ml NaVPA and 1.39 mg/ml CHIR99021
Experimental: The effects of CHIR99021 and valproic acid (VPA) on hearing in mice with SNHL were examined. Ten-week-old CBA/CaJ mice were deafened using an established method in which mice were exposed to 8-16 kHz octave band noise for 2 hours at ≥116 dB (Wang et al., 2002). […] Auditory brainstem responses (ABRs) were obtained using tone-burst stimuli for frequencies spanning ˜80% of the cochlea 24 hours after noise administration to establish a baseline for recovery. Animals were dosed once following the 24 hour ABR. Distortion product otoacoustic emissions (DPOAEs) were not routinely analyzed since thresholds after treatment were above DPOAE detection levels. CHIR99021 and VPA were delivered locally by intratympanic injection into the middle ear using a pulled glass pipette, a technique that mimics the standard clinical middle ear injection technique used in humans. The delivery vehicle was adapted from previous work using thermo-reversible poloxamer gels to deliver drugs into the middle ear for diffusion into the cochlea (Salt et al, 2011; Wang et al, 2009). […] Using established techniques (Hirose et al., 2014), perilymph was sampled from 7 animals and analyzed using mass spectrometry to determine entry of CHIR99021 and VPA into the cochlea. Within 0.5 hours, CHIR99021 was detected at 3.5 μM+1.5 μM and VPA was detected at 310.3 μM+51.8 μM. […]

[8] = human, in vivo
Source text: Patients underwent physical examination of weight and height, vital signs (body temperature, pulse rate, blood pressure), 12-lead electrocardiogram (ECG), drug screen, clinical laboratory testing (hematology, serum chemistry, urinalysis), urine pregnancy test, and hepatitis B and C antibody tests.

[9] = biological target: gamma secretase; details: SH-SY5Y cells; read-out: Lit cell conc, IC50; cited from earlier work
[10] = test system: KDM; details: Table 9; cited from earlier work
[11] = test system: TAZ; details: Table 10; literature, cells not named; cited from earlier work
[12] = test system: KDM2; details: Table 9; read-out: Select KDM2; cited from earlier work
[13] = Table 10, TAZ activators, concentration range

HER 2, sequence (P04626 23-1255): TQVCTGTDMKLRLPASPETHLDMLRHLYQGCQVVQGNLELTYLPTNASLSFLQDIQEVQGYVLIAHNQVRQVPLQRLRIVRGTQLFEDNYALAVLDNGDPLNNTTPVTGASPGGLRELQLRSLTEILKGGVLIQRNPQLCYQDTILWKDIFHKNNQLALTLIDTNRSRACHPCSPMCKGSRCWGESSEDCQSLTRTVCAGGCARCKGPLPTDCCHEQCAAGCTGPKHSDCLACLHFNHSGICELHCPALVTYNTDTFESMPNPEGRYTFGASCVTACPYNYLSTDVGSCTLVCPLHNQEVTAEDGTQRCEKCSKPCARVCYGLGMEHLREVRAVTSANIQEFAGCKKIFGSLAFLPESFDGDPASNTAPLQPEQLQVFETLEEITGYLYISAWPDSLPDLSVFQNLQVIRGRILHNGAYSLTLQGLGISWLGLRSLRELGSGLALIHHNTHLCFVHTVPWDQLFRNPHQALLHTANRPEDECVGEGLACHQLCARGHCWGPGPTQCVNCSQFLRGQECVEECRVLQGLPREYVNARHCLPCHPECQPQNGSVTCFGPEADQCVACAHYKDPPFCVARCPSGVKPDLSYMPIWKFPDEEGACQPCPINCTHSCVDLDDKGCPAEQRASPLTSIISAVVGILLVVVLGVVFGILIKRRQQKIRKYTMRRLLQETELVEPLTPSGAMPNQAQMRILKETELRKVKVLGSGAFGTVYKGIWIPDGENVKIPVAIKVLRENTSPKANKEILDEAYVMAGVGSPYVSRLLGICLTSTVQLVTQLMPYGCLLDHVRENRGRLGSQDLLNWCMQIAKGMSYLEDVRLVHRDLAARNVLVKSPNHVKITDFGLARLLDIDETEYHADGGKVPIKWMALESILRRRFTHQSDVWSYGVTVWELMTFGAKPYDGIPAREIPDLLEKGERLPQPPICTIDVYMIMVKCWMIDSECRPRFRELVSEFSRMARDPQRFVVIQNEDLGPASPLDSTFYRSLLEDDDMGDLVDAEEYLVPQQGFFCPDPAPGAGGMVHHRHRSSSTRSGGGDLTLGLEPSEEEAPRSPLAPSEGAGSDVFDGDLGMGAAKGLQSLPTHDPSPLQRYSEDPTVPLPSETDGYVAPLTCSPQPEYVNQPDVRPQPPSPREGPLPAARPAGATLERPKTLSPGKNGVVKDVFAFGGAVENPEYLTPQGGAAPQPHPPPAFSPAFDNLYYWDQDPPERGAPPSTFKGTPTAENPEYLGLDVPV
HER 4, sequence (Q15303 26-1308): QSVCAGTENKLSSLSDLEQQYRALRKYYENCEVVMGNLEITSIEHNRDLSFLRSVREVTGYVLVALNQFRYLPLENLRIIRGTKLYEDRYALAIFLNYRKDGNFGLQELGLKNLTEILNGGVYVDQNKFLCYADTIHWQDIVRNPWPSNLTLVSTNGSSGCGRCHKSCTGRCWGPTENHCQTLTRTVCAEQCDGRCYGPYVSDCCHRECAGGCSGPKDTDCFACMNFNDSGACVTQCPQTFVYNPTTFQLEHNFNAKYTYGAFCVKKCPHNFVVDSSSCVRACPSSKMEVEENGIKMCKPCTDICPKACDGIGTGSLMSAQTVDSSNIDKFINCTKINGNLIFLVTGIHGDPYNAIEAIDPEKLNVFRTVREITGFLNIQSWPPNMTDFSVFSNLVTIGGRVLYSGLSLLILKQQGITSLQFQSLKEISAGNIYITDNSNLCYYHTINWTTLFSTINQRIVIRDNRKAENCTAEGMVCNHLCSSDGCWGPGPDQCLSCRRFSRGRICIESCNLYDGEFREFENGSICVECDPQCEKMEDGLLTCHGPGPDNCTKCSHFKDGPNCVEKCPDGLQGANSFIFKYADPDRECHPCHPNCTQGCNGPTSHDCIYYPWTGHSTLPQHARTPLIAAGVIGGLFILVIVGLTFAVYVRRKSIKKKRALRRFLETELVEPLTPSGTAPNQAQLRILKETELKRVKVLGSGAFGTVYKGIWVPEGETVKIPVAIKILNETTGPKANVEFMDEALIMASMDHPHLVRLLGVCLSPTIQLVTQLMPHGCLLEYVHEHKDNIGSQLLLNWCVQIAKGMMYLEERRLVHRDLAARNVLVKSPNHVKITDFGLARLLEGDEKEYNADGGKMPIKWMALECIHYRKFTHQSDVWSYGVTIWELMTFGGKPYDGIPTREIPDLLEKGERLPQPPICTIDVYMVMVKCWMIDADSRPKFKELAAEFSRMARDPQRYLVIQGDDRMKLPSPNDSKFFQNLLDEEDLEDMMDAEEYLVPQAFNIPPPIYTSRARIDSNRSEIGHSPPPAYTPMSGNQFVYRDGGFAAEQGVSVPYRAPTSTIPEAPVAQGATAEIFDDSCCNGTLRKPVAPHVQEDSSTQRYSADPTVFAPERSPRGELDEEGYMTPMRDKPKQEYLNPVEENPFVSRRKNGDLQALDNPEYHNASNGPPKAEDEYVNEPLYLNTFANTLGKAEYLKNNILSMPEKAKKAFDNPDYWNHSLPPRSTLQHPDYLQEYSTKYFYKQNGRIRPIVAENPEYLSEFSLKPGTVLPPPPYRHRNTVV

## C=CC(=O)N1CCC(Oc2cc3c(Nc4ccc(Cl)c(Cl)c4F)ncnc3cc2OC)CC1 [poziotinib]
[1]
  IC50: 5 nM
[2]
  IC50: 23 nM

## N[C@H]1CC[C@H](N[C@@H]2C[C@H]2c2ccccc2)CC1 [ORY-1001]
[3]; Table 6
  Lgr5+ Assay: 0.041 µM
[4]
  IC50: > 100000 nM
[5]
  IC50: > 100000 nM
[6]
  Literat. Cell: 0.5 to 3 nM

## CCCC(CCC)C(=O)O [VPA, valproic acid]
[7]
  concentration detected in perilymph: 310.3 µM
[8]
  time to peak plasma concentrations: ≤ 2 h
  time until cleared from the systemic circulation: ≤ 24 h

## O=C(O)CCC1CCC(c2cc(F)ccc2F)(S(=O)(=O)c2ccc(Cl)cc2)CC1 (stereo not shown) [MK-0572]
[9]
  IC50: 5 nM

## O=C(O)CCNc1cc(N2CCc3ccccc3CC2)nc(-c2ccccn2)n1 [GSK-J1]
[10]
  Lit Cell: 50 µM

## C=CCNc1nc(N)c(C(=O)c2ccc(F)s2)s1 [TT10]
[3]; [13]
  Lgr5+ Assay: 1 to 10 µM
[11]
  Lit Cell: 1 µM

## CCCCc1nc2cc(-c3cccnc3)c(C)nc2n1Cc1ccc(-c2ccccc2-c2nn[nH]n2)cc1 [TM-25659]
[3]; [13]
  Lgr5+ Assay: 10 to 100 µM
[11]
  Lit Cell: 10 to 100 µM

## O=C(O)CCN(O)C(=O)CCCCCCCCC1CC1 [TC-E 5002]
[12]
  IC50: 6800 nM
